Results on 40 compounds are retold here after patent US10968193B2, “Antidiabetic bicyclic compounds” (Merck Sharp & Dohme Corp., priority 2014, dated 2021).

The test addresses T1, human GPR40 (Homo sapiens, UniProt O14842).
T1 construct: expressed in transfected cells; host or cells: HEK cells stably expressing the aequorin reporter
Description: Inositol Phosphate Turnover (IP1) Assay 2. In kind it is cell-based. The settings on record: HEK cells stably expressing human GPR40; 15,000 cells per well; compound acoustically transferred; CisBio IP-One kit. The protocol:
Human and mouse GPR40 stable cell-lines were generated in CHO cells stably expressing NFAT BLA (Beta-lactamase). A human GPR40 stable cell-line was generated in HEK cells stably expressing the aequorin expressing reporter. The expression plasmids were transfected using lipofectamine (Life Technologies) following manufacturer's instructions. Stable cell-lines were generated following drug selection.
Inositol Phosphate Turnover (IP1) Assay 2:
The assay was performed in 384-well format. HEK cells stably expressing human GPR40 were plated at 15,000 cells per well in growth medium (DMEM/10% fetal calf serum). Cell plates were then incubated 16 hours at 37 degrees in a 5% CO2 incubator.
Measurement of Inositol Phosphate Turnover (IP1) was performed using the CisBio IP-One kit (Part number 62IPAPEB). After the 16 hour incubation, the cells were washed with HEPES buffer and 10 ul of stimulation buffer (prepared as described in the kit) was added to each well. In a separate plate, compounds were diluted in DMSO (400-fold over the final concentration in the assay well) and 25 nl was acoustically transferred to the appropriate well in the assay cell plate. The plates were then incubated for 60 minutes at 37 degrees. 10 ul of detection buffer (also prepared as described in the IP-One kit) was added to each well and the plates were incubated for 60 minutes in the dark. The plates were then read in a Perkin Elmer EnVision or equivalent reader able to measure FRET. Fluorescent ratio of emission at 665 and 620 nm was then converted to IP1 concentration by back calculating from an IP1 standard curve prepared at the time of the assay.

SMILES strings stand for the structures. Where “and” joins values, the source holds several entries; their conditions need not be identical. Equal values may be shown once.

T1 sequence (O14842 whole entry): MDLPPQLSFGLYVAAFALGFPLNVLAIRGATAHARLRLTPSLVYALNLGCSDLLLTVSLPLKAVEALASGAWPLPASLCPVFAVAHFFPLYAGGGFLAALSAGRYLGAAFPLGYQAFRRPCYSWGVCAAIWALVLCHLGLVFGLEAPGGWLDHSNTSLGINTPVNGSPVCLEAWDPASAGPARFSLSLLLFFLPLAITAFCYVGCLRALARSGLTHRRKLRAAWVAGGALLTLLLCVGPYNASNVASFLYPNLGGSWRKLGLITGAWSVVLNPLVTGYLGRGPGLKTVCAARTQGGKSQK

In general, EC50 refers to the concentration giving half of the maximal effect. Higher therefore signals weaker potency. The compound `COc1cc(-c2ccc(C3CCc4ccc([C@H](C5CC5)[C@H](C)C(=O)O)cc4O3)cc2CN2CCOCC2(C)C)c(F)cn1` (mixture of isomers) [Example 59] came in with an EC50 of 0.98 nM.
In the case of `COc1cc(-c2ccc(C3CCc4ccc([C@H](C5CC5)[C@H](C)C(=O)O)cc4O3)cc2CN2CC(F)(F)C2)c(F)cn1` (mixture of isomers) [Example 61] it was 2 nM; in that of `COc1cc(-c2ccc(C3CCc4ccc([C@H](C5CC5)[C@H](C)C(=O)O)cc4O3)cc2CN2CCCCC23CC3)c(F)cn1` (mixture of isomers) [Example 62], 0.2 nM and 0.99 nM; in that of `COc1cc(-c2ccc(C3CCc4ccc([C@H](C5CC5)[C@H](C)C(=O)O)cc4O3)cc2CN2CCCCC2)c(F)cn1` (mixture of isomers) [Example 63], 2.3 nM.
`COc1cc(-c2ccc(C3CCc4ccc([C@H](C5CC5)[C@H](C)C(=O)O)cc4O3)cc2CN2CCCC2(C)C)c(F)cn1` (mixture of isomers) [Example 66] registered a concentration for a half-maximal effect (EC50) of 0.65 nM.
With `COc1cc(-c2ccc(C3CCc4ccc([C@H](C5CC5)[C@H](C)C(=O)O)cc4O3)cc2CN2CC(C)(C#N)C2)c(F)cn1` (mixture of isomers) [Example 67] the figure was 15 nM; with `COc1cc(-c2ccc(C3CCc4ccc([C@H](C5CC5)[C@H](C)C(=O)O)cc4O3)cc2CN2CCOCC23CCC3)c(F)cn1` (mixture of isomers) [Example 71], 0.7 nM.
`COc1cc(-c2ccc(C3CCc4ccc([C@H](C5CC5)[C@H](C)C(=O)O)cc4O3)cc2CN2CC(C)(OC)C2)c(F)cn1` (mixture of isomers) [Example 73] had an EC50 of 8.2 nM. Against the preceding compound, the EC50 is about 12-fold higher.
`CCc1ccc(F)c(-c2ccc(C3CCc4ccc([C@H](C5CC5)[C@H](C)C(=O)O)cc4O3)cc2CN2CCCC2)c1` (mixture of isomers) [Example 75] displayed an EC50 of 17 nM.
In the case of `CCOc1cc(-c2ccc(C3CCc4ccc([C@H](C5CC5)[C@H](C)C(=O)O)cc4O3)cc2CN(CC)CC)c(F)cn1` (mixture of isomers) [Example 76] it was 8.2 nM; in that of `COc1cc(-c2ccc(C3CCc4ccc([C@H](C5CC5)[C@H](C)C(=O)O)cc4O3)cc2CN2CCCC2)c(C#N)cn1` (mixture of isomers) [Example 78, (2S,3R)-3-(2-(4-(5-cyano-2-methoxypyridin-4-yl)-3-(pyrrolidin-1-ylmethyl)phenyl)chroman-7-yl)-3-cyclopropyl-2-methylpropanoic acid], 8 nM; in that of `COc1cc(-c2ccc(C3CCc4ccc([C@H](C5CC5)[C@H](C)C(=O)O)cc4O3)c(CN3CCCC3)c2)ccn1` (mixture of isomers) [Example 112], 5.6 nM.
Regarding `CCOc1cc(-c2ccc(C3CCc4ccc([C@H](C5CC5)[C@H](C)C(=O)O)cc4O3)cc2CN2CCCC2)c(Cl)cn1` (mixture of isomers) [Example 216], the EC50 came to 86 nM.
With `CCOc1cc(-c2ccc(C3CCc4ccc([C@H](C5CC5)[C@H](C)C(=O)O)cc4O3)cc2CN2CCCC2)c(F)cn1` (mixture of isomers) [Example 74, (2S,3R)-3-cyclopropyl-3-(2-(4-(2-ethoxy-5-fluoropyridin-4-yl)-3-(pyrrolidin-1-ylmethyl)phenyl)chroman-7-yl)-2-methylpropanoic acid] the figure was 9.3 nM; with `COc1cc(-c2ccc(C3CCc4ccc([C@H](C5CC5)[C@H](C)C(=O)O)cc4O3)cc2CN(C)C)c(F)cn1` (single isomer, unassigned) [Example 1a], 2.3 nM.
In the case of `COc1cc(-c2ccc(C3CCc4ccc([C@H](C5CC5)[C@H](C)C(=O)O)cc4O3)cc2CN(C)C)c(F)cn1` (single isomer, unassigned) [Example 1b], the EC50 turned out to be 2.9 nM.
In the case of `COc1cc(-c2ccc(C3CCc4ccc([C@H](C5CC5)[C@H](C)C(=O)O)cc4O3)cc2CN2CCCC2)c(F)cn1` (single isomer, unassigned) [Example 9a] it was 3.9 nM; in that of `COc1cc(-c2ccc(C3CCc4ccc([C@H](C5CC5)[C@H](C)C(=O)O)cc4O3)cc2CN2CCCC2)c(F)cn1` (single isomer, unassigned) [Example 9b], 3.4 nM; in that of `COc1cc(-c2ccc(C3CCc4ccc([C@H](C5CC5)[C@H](C)C(=O)O)cc4O3)cc2CN2CCOCC2)c(F)cn1` (single isomer, unassigned) [Example 11a], 1.7 nM.
Consider `COc1cc(-c2ccc(C3CCc4ccc([C@H](C5CC5)[C@H](C)C(=O)O)cc4O3)cc2CN2CCOCC2)c(F)cn1` (single isomer, unassigned) [Example 11b], for which the EC50 was 2.4 nM.
With `COc1cc(-c2ccc(C3CCc4ccc([C@H](C5CC5)[C@H](C)C(=O)O)cc4O3)cc2CN(C)CC(F)(F)F)c(F)cn1` (single isomer, unassigned) [Example 21] the figure was 0.76 nM; with `COc1cc(-c2ccc(C3CCc4ccc([C@H](C5CC5)[C@H](C)C(=O)O)cc4O3)cc2CN(C)CC(F)(F)F)c(F)cn1` (single isomer, unassigned) [Example 22], 0.46 nM; with `COc1cc(-c2ccc(C3CCc4ccc([C@H](C5CC5)[C@H](C)C(=O)O)cc4O3)cc2CN2CC[C@@H](F)C2)c(F)cn1` (single isomer, unassigned) [Example 23], 1.7 nM.
Take `COc1cc(-c2ccc(C3CCc4ccc([C@H](C5CC5)[C@H](C)C(=O)O)cc4O3)cc2CN2CC[C@@H](F)C2)c(F)cn1` (single isomer, unassigned) [Example 24]: the EC50 is 2.2 nM.
The compound `COc1cc(-c2ccc(C3CCc4ccc([C@H](C5CC5)[C@H](C)C(=O)O)cc4O3)cc2CN2CC[C@H](F)C2)c(F)cn1` (single isomer, unassigned) [Example 25] came in with a concentration for a half-maximal effect (EC50) of 2.3 nM. This EC50 and that of the compound before are within 1.5-fold of each other.
In turn, `COc1cc(-c2ccc(C3CCc4ccc([C@H](C5CC5)[C@H](C)C(=O)O)cc4O3)cc2CN2CC[C@H](F)C2)c(F)cn1` (single isomer, unassigned) [Example 26] had a concentration giving a half-maximal response (EC50) of 2.5 nM.
In the case of `COc1cc(-c2ccc(C3CCc4ccc([C@H](C5CC5)[C@H](C)C(=O)O)cc4O3)cc2CN2CC[C@@H](C(F)(F)F)C2)c(F)cn1` (single isomer, unassigned) [Example 27] it was 1.5 nM; in that of `COc1cc(-c2ccc(C3CCc4ccc([C@H](C5CC5)[C@H](C)C(=O)O)cc4O3)cc2CN2CC[C@@H](C(F)(F)F)C2)c(F)cn1` (single isomer, unassigned) [Example 28], 1.4 nM; in that of `COc1cc(-c2ccc(C3CCc4ccc([C@H](C5CC5)[C@H](C)C(=O)O)cc4O3)cc2CN2CC[C@H](C(F)(F)F)C2)c(F)cn1` (single isomer, unassigned) [Example 29], 0.8 nM.
With `COc1cc(-c2ccc(C3CCc4ccc([C@H](C5CC5)[C@H](C)C(=O)O)cc4O3)cc2CN2CC[C@H](C(F)(F)F)C2)c(F)cn1` (single isomer, unassigned) [Example 30] the figure was 1.5 nM; with `COc1cc(-c2ccc(C3CCc4ccc([C@H](C5CC5)[C@H](C)C(=O)O)cc4O3)cc2CN2CCC(F)(F)C2)c(F)cn1` (single isomer, unassigned) [Example 31], 0.95 nM.
In the case of `COc1cc(-c2ccc(C3CCc4ccc([C@H](C5CC5)[C@H](C)C(=O)O)cc4O3)cc2CN2CCC(F)(F)C2)c(F)cn1` (single isomer, unassigned) [Example 32] it was 0.84 nM; in that of `COc1cc(-c2ccc(C3CCc4ccc([C@H](C5CCC5)[C@H](C)C(=O)O)cc4O3)cc2CN2CCCC2)c(F)cn1` (single isomer, unassigned) [Example 92], 4 nM.
In turn, `COc1cc(-c2ccc(C3CCc4ccc([C@H](C5CCC5)[C@H](C)C(=O)O)cc4O3)cc2CN2CCCC2)c(F)cn1` (single isomer, unassigned) [Example 93] had an EC50 of 2.9 nM. The EC50 values of the last two compounds are within 1.5-fold of each other.
Consider `COc1cc(-c2ccc(C3CCc4ccc([C@H](C5CCC5)[C@H](C)C(=O)O)cc4O3)cc2CN(C)C)c(F)cn1` (single isomer, unassigned) [Example 94], for which the EC50 came to 1.8 nM. This EC50 lies about 1.6-fold lower than the previous one.
As to `COc1cc(-c2ccc(C3CCc4ccc([C@H](C5CCC5)[C@H](C)C(=O)O)cc4O3)cc2CN(C)C)c(F)cn1` (single isomer, unassigned) [Example 95], the EC50 was 1.8 nM.
With `COc1cc(-c2ncc([C@@H]3CCc4ccc([C@H](C5CC5)[C@H](C)C(=O)O)cc4O3)nc2CN2CCCC2)c(F)cn1` (single isomer, unassigned) [Example 110a] the figure was 446 nM; with `COc1cc(-c2ncc([C@H]3CCc4ccc([C@H](C5CC5)[C@H](C)C(=O)O)cc4O3)nc2CN2CCCC2)c(F)cn1` (single isomer, unassigned) [Example 110b], 139 nM.
In the case of `COc1cc(-c2ccc(C3CCc4ccc([C@H](C5CC5)[C@H](C)C(=O)O)cc4O3)cc2CN2CC[C@@H](S(C)(=O)=O)C2)c(F)cn1` (stereo partly shown) [Example 5] it was 660 nM.
With `COc1cc(-c2ccc(C3CCc4ccc([C@H](C5CC5)[C@H](C)C(=O)O)cc4O3)cc2CN2CC[C@H](S(C)(=O)=O)C2)c(F)cn1` (stereo partly shown) [Example 6] the figure was 227 nM.
